Data from article PMC7057948, “A genome-wide approach for identification and characterisation of metabolite-inducible systems” (Nature Communications, 2020).
Where a name gives a salt, the structure may show the parent alone.

What was measured:
HpdR [1] = experiment: cells; set-up: species or system Cupriavidus necator H16; RFP reporter induction by transcription factor biosensor, fluorescence normalised to cell density, relative to primary effector; details: 6 h; relative to primary effector, C. necator, MM; read-out: % activation
Description: (§1) To screen the 441 combinations of inducer and biosensor for cross-reactivity, we employed an automated platform (see Methods section). Strains of C. necator harbouring the inducible systems were grown in MM and transferred to a 96-well microtiter plate format. After the inducers had been extracellularly added, cells were cultured for 6 h before RFP fluorescence and cell density were measured. […] The remaining six inducible systems were activated by one or more metabolites other than their cognate inducers. This cross-reactivity may be the result of either structural resemblance, a metabolic relationship or a combination thereof. For example, L-phenylalanine is converted into L-tyrosine by the phenylalanine 4-monooxygenase PhhA (H16_RS18365). Therefore, activation of the L-tyrosine-inducible system by L-phenylalanine is more likely to be due to biological conversion of the added compound into the primary effector rather than direct interaction of L-phenylalanine with HpdA. However, since the difference between the two molecules lies in a singly hydroxyl-group, an induction by structural resemblance cannot be entirely ruled out. The same applies to phenylglyoxylate that activated the benzoate-inducible system. Phenylglyoxylate is converted by C. necator into benzoate via a two-step reaction with benzaldehyde as intermediate compound. During the first reaction, carbon dioxide is generated that may also explain induction of the formate-inducible system by the structurally dissimilar phenylglyoxylate. Since carbon dioxide can subsequently be converted into formate, it is rational to postulate that the FdsR/PH16_RS03165-inducible system is activated in this case by its primary inducer. In addition to phenylglyoxylate, the benzoate-inducible system was activated by extracellular supplementation with cyclohexanecarboxylate and cumate. Cyclohexanecarboxylate shares both a structural resemblance to benzoate and downstream  Fig. 6 Orthogonality of inducible systems. a Cross-reactivity of a set of 21 inducible systems and their corresponding primary inducers. The heat map illustrates induction of reporter gene expression in the presence of the metabolite (in %) relative to the induction mediated by the corresponding primary effector. Measurements were taken 6 h after supplementation with inducer at a final concentration of 5 mM. Data are mean, n = 4. Source data are provided as a Source Data file. b Fluorescence output of individual cells of C. necator carrying pEH263 measured by flow cytometry. The vector pEH263 contains the 3,4-dihydroxybenzoate- and [compound left out]-inducible systems controlling expression of rfp and egfp, respectively. Fluorescence was determined in the absence of inducer (orange), in the presence of 3,4-dihydroxybenzoate (blue), [compound left out] (green), and both 3,4-dihydroxybenzoate and [compound left out] (purple). Effector concentrations correspond to their respective Km’s and fluorescence was measured 2 h after inducer addition.

OapR = experiment: cells; set-up: species or system Cupriavidus necator H16; RFP reporter induction by transcription factor biosensor, fluorescence normalised to cell density, relative to primary effector; details: 6 h; relative to primary effector, C. necator, MM; read-out: % activation
Description: as §1

FdsR = FdsR (Cupriavidus necator, UniProt Q0KDY4); experiment: cell-based
Text: RFP reporter dose-response in C. necator H16, Hill fit on FdsR

XdhR = test system: T1, XdhR; experiment: RFP reporter dose-response in C. necator H16, Hill fit; type: cell-based, Cupriavidus necator; details: inducer concentration for half-maximal activation; extracellular inducer, minimal medium, 30 °C, 80 min; whole cells with chromosomal regulator copy; read-out: Km^b
T1 construct: native full-length gene, divergent to operon starting at H16_RS05055; reporter plasmid pEH154 (plasmid assigned by list order)

KynR = target: T2, KynR (Cupriavidus necator, UniProt Q0K7Y0); experiment: as above; type: cell-based; details: read-out: Km^b
T2 construct: gene H16_A2813; native full-length gene, divergent to operon starting at H16_RS14030; reporter plasmid pEH136 (plasmid assigned by list order)
T2 sequence (Q0K7Y0 1-160): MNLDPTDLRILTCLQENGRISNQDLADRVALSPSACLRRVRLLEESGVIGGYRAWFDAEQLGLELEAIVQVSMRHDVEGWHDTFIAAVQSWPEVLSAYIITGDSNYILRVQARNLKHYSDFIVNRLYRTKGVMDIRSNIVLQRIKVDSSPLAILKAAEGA
Description: RFP reporter dose-response in C. necator H16, Hill fit on KynR

HpdR [2] = test system: T3, HpdR; experiment: as above; type: cell-based, Cupriavidus necator; details: inducer concentration for half-maximal activation; extracellular inducer, minimal medium, 30 °C, 80 min; whole cells with chromosomal regulator copy; read-out: Km^b
T3 construct: native full-length gene, divergent to operon starting at H16_RS18295; reporter plasmid pEH010 (plasmid assigned by exclusion)
Description: RFP reporter dose-response in C. necator H16, Hill fit on HpdR

PhhR = target: T4, PhhR (Cupriavidus necator, UniProt Q0K5I4); experiment: as above; type: cell-based; details: read-out: Km^b
T4 construct: native full-length gene, divergent to phhA (H16_RS18365); reporter plasmid pEH137 (plasmid assigned by list order)
T4 sequence (Q0K5I4 1-234): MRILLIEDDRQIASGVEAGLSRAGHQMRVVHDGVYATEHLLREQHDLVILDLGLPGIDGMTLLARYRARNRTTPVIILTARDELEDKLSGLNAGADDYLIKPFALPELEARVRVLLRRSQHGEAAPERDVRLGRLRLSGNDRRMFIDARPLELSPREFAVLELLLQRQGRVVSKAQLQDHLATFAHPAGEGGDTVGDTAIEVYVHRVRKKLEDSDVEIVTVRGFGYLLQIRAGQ
Description: RFP reporter dose-response in C. necator H16, Hill fit on PhhR

HpdA [3] = experiment: cells; set-up: species or system Cupriavidus necator H16; RFP reporter induction by transcription factor biosensor, fluorescence normalised to cell density, relative to primary effector; details: 6 h; relative to primary effector, C. necator, MM; read-out: % activation
Description: as §1

HpdA [4] = test system: T5, HpdA; experiment: RFP reporter dose-response in C. necator H16, Hill fit; type: cell-based, Cupriavidus necator; details: inducer concentration for half-maximal activation; extracellular inducer, minimal medium, 30 °C, 80 min; whole cells with chromosomal regulator copy; read-out: Km^b
T5 construct: native full-length regulator gene, divergent to operon starting at H16_RS24175; reporter plasmid pEH158 (plasmid assigned by list order)

BenM [5] = experiment: cells; set-up: species or system Cupriavidus necator H16; RFP reporter induction by transcription factor biosensor, fluorescence normalised to cell density, relative to primary effector; details: 6 h; relative to primary effector, C. necator, MM; read-out: % activation
Description: as §1

BenM [6] = target: T6, BenM (Cupriavidus necator, UniProt Q0KAA5); experiment: cell-based; set-up: RFP reporter induction by transcription factor biosensor, single time-point fluorescence in LB, relative to primary effector; details: Escherichia coli TOP10; relative to primary effector, E. coli, LB; read-out: % activation
T6 construct: native full-length gene, divergent to operon starting at H16_RS09790; reporter plasmid pEH148 (plasmid assigned by list order)
T6 sequence (Q0KAA5 1-305): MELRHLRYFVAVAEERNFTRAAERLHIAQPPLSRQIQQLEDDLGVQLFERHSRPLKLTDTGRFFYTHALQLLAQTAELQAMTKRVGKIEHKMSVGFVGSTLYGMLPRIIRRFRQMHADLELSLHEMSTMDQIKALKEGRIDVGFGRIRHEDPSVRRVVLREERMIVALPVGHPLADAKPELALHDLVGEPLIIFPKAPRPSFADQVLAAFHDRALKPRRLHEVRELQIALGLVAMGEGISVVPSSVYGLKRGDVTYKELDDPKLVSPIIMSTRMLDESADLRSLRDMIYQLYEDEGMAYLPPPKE
Text: (§2) TRs often recognise molecules that are structurally similar to their primary effectors. For example, isopropyl β-D-1-thiogalactopyranoside is a commonly used structural analogue of allolactose, employed to control the expression of genes regulated by LacI. Here, the TR’s specificity was investigated to identify previously uncharacterised ligand–TR interactions and consequently extend the biosensor application to the detection of structurally similar or metabolically related compounds. To do so, the library of 21 native and heterologous inducible systems was screened against 46 compounds using an integrated robotic platform, as described in the previous section. […] Similarly to the former orthogonality screen (Fig. 6a), it should be noted that activation of reporter gene expression by the extracellularly added compounds likely indicates a structural resemblance to the primary ligand, a metabolic relationship or a combination thereof. To shed light on their cause of system activation, cultures of E. coli carrying the functional formate-, [compound left out]-, benzoate-, 3,4-dihydroxybenzoate-, acetoin- and β-alanine-inducible systems, active in this host organism, were evaluated for the same cross-reactivity (Supplementary Table 5).  Fig. 3 C. necator native systems mediate controllable gene expression in E. coli and P. putida. Single time-point fluorescence measurements of a, b E. coli and c, d P. putida carrying the C. necator-inducible gene expression systems composed of TR and promoter a, c or ‘promoter only’ version b, d. The plasmids harbouring the individual system– or promoter–reporter gene constructs are indicated. RFP fluorescence output was determined in the absence of inducer (light purple and light blue) and 6 h after extracellular supplementation with the corresponding primary effector to a final concentration of 5 mM (dark purple and dark blue). Data are mean ± SD, n = 3, *p < 0.05, **p < 0.01, ***p ≤ 0.001, ****p ≤ 0.0001, unpaired two-tailed t-test. Source data are provided as a Source Data file. All strains used in this study are listed in Supplementary Table 7. E. coli TOP10 (Life Technologies) was used for cloning and plasmid propagation. For single time-point fluorescence measurements and flow cytometric analyses, bacterial strains were propagated in Luria-Bertani (LB) medium. To determine the dose–responses and to evaluate inducer TR cross-reactivity, C. necator was cultivated in MM containing 1 g/L NH4Cl, 9 g/L Na2HPO4·12H2O, 1.5 g/L KH2PO4, 0.2 g/L MgSO4·7H2O, 0.02 g/L CaCl2·2H2O and 0.0012 g/L (NH4)5[Fe(C6H4O7)2] with 1 mL/L trace element solution SL7 (1.3 mL/L 25% (w/v) HCl, 0.07 g/L ZnCl2, 0.1 g/L MnCl2·4H2O, 0.062 g/L H3BO3, 0.190 g/L CoCl2·6H2O, 0.017 g/L CuCl2·2H2O, 0.024 g/L NiCl2·6H2O and 0.036 g/L Na2MoO4·2H2O) supplemented with 0.4% (w/v) sodium gluconate. If required, antibiotics were added to the growth medium at the following concentrations: 12.5 µg/mL tetracycline or 25 µg/mL chloramphenicol for E. coli, 50 µg/mL chloramphenicol for C. necator and 25 µg/mL tetracycline for P. putida. For solid media preparation, 15 g/L agar was added.

PcaQ = target: T7, PcaQ (Cupriavidus necator, UniProt Q0JYV0); experiment: RFP reporter dose-response in C. necator H16, Hill fit; type: cell-based; details: read-out: Km^b
T7 construct: native full-length gene, divergent to operon starting at H16_RS30145; reporter plasmid pEH161 (plasmid assigned by list order)
T7 sequence (Q0JYV0 1-317): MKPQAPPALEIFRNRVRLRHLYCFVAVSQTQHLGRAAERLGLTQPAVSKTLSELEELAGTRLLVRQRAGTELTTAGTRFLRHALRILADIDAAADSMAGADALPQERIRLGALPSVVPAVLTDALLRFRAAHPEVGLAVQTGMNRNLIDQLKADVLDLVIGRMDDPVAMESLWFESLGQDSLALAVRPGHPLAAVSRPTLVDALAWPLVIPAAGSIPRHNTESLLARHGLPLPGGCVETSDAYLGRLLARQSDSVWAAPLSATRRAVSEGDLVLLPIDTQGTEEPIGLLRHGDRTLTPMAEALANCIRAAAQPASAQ

AcoR [7] = experiment: cells; set-up: species or system Cupriavidus necator H16; RFP reporter induction by transcription factor biosensor, fluorescence normalised to cell density, relative to primary effector; details: 6 h; relative to primary effector, C. necator, MM; read-out: % activation
Description: as §1

AcoR [8] = target: T8, AcoR (Cupriavidus necator, UniProt P28614); experiment: cell-based; set-up: RFP reporter induction by transcription factor biosensor, single time-point fluorescence in LB, relative to primary effector; details: Escherichia coli TOP10; relative to primary effector, E. coli, LB; read-out: % activation
T8 construct: native full-length gene, divergent to operon starting at H16_RS19445; reporter plasmid pEH052 (plasmid assigned by list order)
T8 sequence (P28614 1-668): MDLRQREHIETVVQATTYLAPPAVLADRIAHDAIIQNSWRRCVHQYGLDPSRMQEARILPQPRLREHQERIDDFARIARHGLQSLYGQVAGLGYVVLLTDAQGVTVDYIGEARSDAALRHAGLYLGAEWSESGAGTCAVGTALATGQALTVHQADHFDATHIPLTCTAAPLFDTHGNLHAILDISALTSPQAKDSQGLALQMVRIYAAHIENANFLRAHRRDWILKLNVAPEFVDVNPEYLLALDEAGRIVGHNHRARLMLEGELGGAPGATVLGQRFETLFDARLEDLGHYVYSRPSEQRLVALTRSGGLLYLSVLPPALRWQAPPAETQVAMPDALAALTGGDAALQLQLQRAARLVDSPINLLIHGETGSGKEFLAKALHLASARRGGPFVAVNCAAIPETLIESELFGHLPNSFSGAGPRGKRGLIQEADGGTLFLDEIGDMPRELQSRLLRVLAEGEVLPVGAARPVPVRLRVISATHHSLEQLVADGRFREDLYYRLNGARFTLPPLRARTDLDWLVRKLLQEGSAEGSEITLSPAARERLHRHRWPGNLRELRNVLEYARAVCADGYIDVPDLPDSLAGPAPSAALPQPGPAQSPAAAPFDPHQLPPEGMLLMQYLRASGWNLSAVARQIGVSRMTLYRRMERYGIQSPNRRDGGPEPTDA
Text: as §2

Chain of FdsR (Q0KDY4 1-364): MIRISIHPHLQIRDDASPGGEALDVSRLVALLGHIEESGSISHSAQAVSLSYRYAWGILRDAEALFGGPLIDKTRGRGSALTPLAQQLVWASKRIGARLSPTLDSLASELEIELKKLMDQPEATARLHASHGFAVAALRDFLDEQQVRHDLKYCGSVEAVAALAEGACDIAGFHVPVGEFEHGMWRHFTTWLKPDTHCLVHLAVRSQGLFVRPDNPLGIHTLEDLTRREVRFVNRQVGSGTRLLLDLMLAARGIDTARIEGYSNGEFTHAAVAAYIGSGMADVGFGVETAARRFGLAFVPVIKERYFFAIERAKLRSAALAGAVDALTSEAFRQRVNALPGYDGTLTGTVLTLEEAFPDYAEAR

## C=CC(=O)O [Acrylate]
HpdR [1]
  activity at 5000 µM: 113%
OapR
  activity at 5000 µM: 68%

## O=CO [compound 2, Formate]
FdsR
  EC50: 130 ± 7 µM

## O=c1[nH]c(=O)c2[nH]cnc2[nH]1 [compound 3, Xanthine]
XdhR
  EC50: 13 ± 1.4 µM

## Nc1ccccc1C(=O)C[C@H](N)C(=O)O [compound 9, L-kynurenine]
KynR
  EC50: 2.64 ± 0.18 µM

## O=C(O)CCO [compound 10, 3-Hydroxypropanoate]
HpdR [2]
  EC50: 13.2 ± 1.9 µM

## N[C@@H](Cc1ccccc1)C(=O)O [compound 11, L-phenylalanine]
PhhR
  EC50: 16.9 ± 2.2 µM
HpdA [3]
  activity at 5000 µM: 77%

## N[C@@H](Cc1ccc(O)cc1)C(=O)O [compound 13, L-tyrosine]
HpdA [4]
  EC50: 9.9 ± 2.2 µM

## O=C(O)C1CCCCC1 [compound 14, Cyclohexanecarboxylate]
BenM [5]
  activity at 5000 µM: 110%
BenM [6]
  activity at 5000 µM: 4.3%

## O=C(O)c1ccc(O)c(O)c1 [compound 16, 3,4-Dihydroxybenzoate]
PcaQ
  EC50: 8.63 ± 0.4 µM

## CC(C)c1ccc(C(=O)O)cc1 [cumate]
AcoR [7]
  activity at 5000 µM: 18%
BenM [5]
  activity at 5000 µM: 100%
AcoR [8]
  activity at 5000 µM: 0%
BenM [6]
  activity at 5000 µM: 2%
